Assay results as given in patent US10093678B2, “Azaspiro derivatives as TRPM8 antagonists” (RaQualia Pharma Inc., priority 2014, dated 2018).

Molecular target: T1, human TRPM8 (Homo sapiens, UniProt Q7Z2W7)
T1 construct: expressed in transfected cells; host or cells: HEK293
Assay: Menthol-induced Ca2+ influx in HEK293 cells stably expressing human TRPM8
Format: cell-based
Details: 30 microM menthol-induced Ca2+ influx, read-out: IC50 against TRPM8
In short: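 HEK293 cells stably expressing human TRPM8 were loaded with Fluo4-AM for 1 h at room temperature, preincubated 5 min with compound, then challenged with 30 microM menthol. Calcium rise was read by FDSS imaging. IC50 came from 11-point curves using duplicate-well means.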

T1 sequence (Q7Z2W7 whole entry): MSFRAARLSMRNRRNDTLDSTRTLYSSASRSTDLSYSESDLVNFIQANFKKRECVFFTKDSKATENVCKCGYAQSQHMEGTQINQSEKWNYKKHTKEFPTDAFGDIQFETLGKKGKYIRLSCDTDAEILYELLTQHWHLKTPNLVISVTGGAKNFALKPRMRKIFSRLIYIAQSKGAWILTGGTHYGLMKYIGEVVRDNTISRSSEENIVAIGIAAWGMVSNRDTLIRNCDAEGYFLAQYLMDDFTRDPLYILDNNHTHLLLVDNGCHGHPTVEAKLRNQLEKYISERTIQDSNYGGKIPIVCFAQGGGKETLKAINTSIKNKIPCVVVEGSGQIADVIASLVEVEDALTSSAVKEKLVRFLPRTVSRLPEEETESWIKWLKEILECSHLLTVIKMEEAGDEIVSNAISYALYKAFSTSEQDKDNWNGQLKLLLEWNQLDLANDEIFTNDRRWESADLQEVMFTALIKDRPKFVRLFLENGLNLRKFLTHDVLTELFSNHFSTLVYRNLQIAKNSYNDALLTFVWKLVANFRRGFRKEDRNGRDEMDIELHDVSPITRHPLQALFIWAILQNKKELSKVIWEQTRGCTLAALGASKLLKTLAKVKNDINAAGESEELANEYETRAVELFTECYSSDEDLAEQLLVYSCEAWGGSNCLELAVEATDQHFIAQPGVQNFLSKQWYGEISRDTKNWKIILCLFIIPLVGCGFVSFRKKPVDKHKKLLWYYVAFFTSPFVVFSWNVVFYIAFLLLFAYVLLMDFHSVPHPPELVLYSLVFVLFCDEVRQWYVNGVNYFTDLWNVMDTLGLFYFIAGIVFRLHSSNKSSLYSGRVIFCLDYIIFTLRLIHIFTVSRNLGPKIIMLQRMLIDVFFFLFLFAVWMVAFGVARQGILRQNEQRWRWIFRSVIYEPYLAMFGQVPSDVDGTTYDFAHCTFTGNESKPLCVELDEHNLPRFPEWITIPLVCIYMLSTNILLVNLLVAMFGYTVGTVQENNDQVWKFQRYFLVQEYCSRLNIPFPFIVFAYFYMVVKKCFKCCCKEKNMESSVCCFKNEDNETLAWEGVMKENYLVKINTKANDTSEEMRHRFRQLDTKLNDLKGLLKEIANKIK

Row | SMILES | IC50 [µM]
1 | Cc1cccc(-n2c(C)cc(C(=O)CN3C(=O)NC4(CCCCC4)C3=O)c2C)c1 [Example 3-6] | < 0.1
2 | Cc1cc(C(=O)CN2C(=O)NC3(CCC(F)(F)CC3)C2=O)c(C)n1-c1ccccn1 [Example 3-12] | < 0.1
3 | O=C(CN1C(=O)NC2(CCC(F)(F)CC2)C1=O)c1ccc(-c2cccc3ccncc23)cc1 [Example 13-36] | < 0.01
4 | Cc1cnc(C)c(-c2ccc(C(=O)CN3C(=O)NC4(CCC(F)(F)CC4)C3=O)cc2)n1 [Example 6-7] | < 0.01
5 | Cc1sc(C(=O)CN2C(=O)NC3(CCC(F)(F)CC3)C2=O)c(C)c1-c1cccnc1 [Example 15-2] | < 0.1
6 | O=C(CN1C(=O)NC2(CCC(F)(F)CC2)C1=O)c1ccc(-c2cccc3ccncc23)c(Cl)c1 [Example 13-29] | < 0.1
7 | Cc1nc2cccnc2n1-c1ccc(C(=O)CN2C(=O)NC3(CCCCC3)C2=O)cn1 [Example 5-33] | < 0.1
8 | Cc1cccc(-n2c(C)nc(C(=O)CN3C(=O)CC4(CCC(F)(F)CC4)C3=O)c2C)c1 [Example 2-8] | < 0.5
9 | O=C(CN1C(=O)NC2(CCC(F)(F)CC2)C1=O)c1ccc(-c2cccc(O)c2)cc1 [Example 6-35] | < 0.1
10 | Cc1cncc(-n2c(C)cc(C(=O)CN3C(=O)NC4(CC5CCC4C5)C3=O)c2C)c1 (centres unmarked) [Example 3-10] | < 0.1
11 | Cc1ccccc1-c1ccc(C(=O)CN2C(=O)NC3(CCCCC3)C2=O)cc1 [Example 13-4] | < 0.1
12 | Cc1cnc(C)c(-c2ccc(C(=O)CN3CC4(CCC(F)(F)CC4)OC3=O)cc2)n1 [Example 7-17] | < 0.5
13 | Cc1nc(C(=O)CN2C(=O)NC3(CCC(F)(F)CC3)C2=O)c(C)n1-c1cccc(Cl)c1 [Example 2-14] | < 0.1
14 | Cc1cc(C(=O)CN2C(=O)NC3(CCC(F)(F)CC3)C2=O)ccc1-c1cncc(F)c1 [Example 13-8] | < 0.1
15 | Cc1nc(C(=O)CN2C(=O)OC3(CCCCC3)C2=O)c(C)n1-c1ccccc1 [Example 2-4] | < 0.1
16 | Cc1nc(C(=O)CN2CC3(CCC(F)(F)CC3)OC2=O)c(C)n1-c1cccc(F)c1 [Example 2-18] | < 0.5
17 | Cc1ccc(C#N)c(-c2ccc(C(=O)CN3C(=O)NC4(CCC(F)(F)CC4)C3=O)cc2)n1 [Example 6-92] | < 0.1
18 | Cc1ncccc1-c1ccc(C(=O)CN2C(=O)NC3(CCC(F)(F)CC3)C2=O)cn1 [Example 9-15] | < 0.1
19 | O=C(CN1C(=O)NC2(CCC(F)(F)CC2)C1=O)c1ccc(-c2ncnc3[nH]ncc23)cc1 [Example 6-23] | < 0.1
20 | O=C(CN1C(=O)NC2(CCC(F)(F)CC2)C1=O)c1cc(F)c(-c2ccccc2CO)c(F)c1 [Example 13-32] | < 0.1
21 | O=C(CN1C(=O)NC2(CCC(F)(F)CC2)C1=O)c1ccc(-c2cncc3[nH]ccc23)cc1 [Example 6-5] | < 0.01
22 | Cc1cc(C(=O)CN2C(=O)NC3(CCCCC3)C2=O)c(C)n1-c1cccc(N2CCCC(O)C2)n1 (centres unmarked) [Example 3-29, 3-(2-(1-(6-(3-hydroxypiperidin-1-yl)pyridin-2-yl)-2,5-dimethyl-1H-pyrrol-3-yl)-2-oxoethyl)-1,3-diazaspiro[4.5]decane-2,4-dione] | < 0.5
23 | N#CCc1ccccc1-c1ccc(C(=O)CN2C(=O)NC3(CCC(F)(F)CC3)C2=O)cc1 [Example 6-108] | < 0.1
24 | N#Cc1nccnc1-c1ccc(C(=O)CN2C(=O)NC3(CCC(F)(F)CC3)C2=O)cc1F [Example 8-1] | < 0.1

Row | SMILES | IC50 [µM]
25 | NCc1ccncc1-c1ccc(C(=O)CN2C(=O)NC3(CCC(F)(F)CC3)C2=O)cc1 [Example 6-58, 3-(2-(4-(4-(aminomethyl)pyridin-3-yl)phenyl)-2-oxoethyl)-8,8-difluoro-1,3-diazaspiro[4.5]decane-2,4-dione] | < 0.1
26 | Cc1cc(C(=O)CN2C(=O)NC3(CCC(F)(F)CC3)C2=O)ccc1-c1cccnc1 [Example 13-7] | < 0.1
27 | O=C(CN1C(=O)NC2(CCCCC2)C1=O)c1ccc(-c2ccccc2C(F)(F)F)nc1 [Example 9-6] | < 0.1
28 | O=C(CN1C(=O)NC2(CCC(F)(F)CC2)C1=O)c1ccc(Oc2cccnn2)cc1 [Example 5-22] | < 0.1
29 | Cc1nc2c(-c3ccc(C(=O)CN4C(=O)NC5(CCC(F)(F)CC5)C4=O)cc3)cccc2[nH]1 [Example 6-65] | < 0.5
30 | O=C(CN1CC2(CCC(F)(F)CC2)OC1=O)c1ccc(-c2cnccc2CO)cc1 [Example 7-16] | < 0.5
31 | N#Cc1cccnc1-c1ccc(C(=O)CN2C(=O)NC3(CCCCC3)C2=O)cc1 [Example 7-12] | < 0.1
32 | O=C1Cc2c(-c3ccc(C(=O)CN4C(=O)NC5(CCC(F)(F)CC5)C4=O)cc3)ccnc2N1 [Example 6-42] | < 0.5
33 | O=C(CN1C(=O)NC2(CCC(F)(F)CC2)C1=O)c1ccc(-c2cccnc2CO)cc1 [Example 6-9] | < 0.1
34 | Nc1ccnnc1-c1ccc(C(=O)CN2C(=O)NC3(CCC(F)(F)CC3)C2=O)cc1F [Example 8-6] | < 0.5
35 | Cc1ccccc1-c1cnc(C(=O)CN2C(=O)NC3(CCC(F)(F)CC3)C2=O)cn1 [Example 12-2] | < 0.1
36 | O=C(CN1C(=O)OC2(CCC(F)(F)CC2)C1=O)c1ccc(-c2nccc3ccncc23)cc1 [Example 7-22] | < 0.01
37 | Cc1ncccc1-c1ccc(C(=O)CN2CC3(CCC(F)(F)CC3)OC2=O)cc1 [Example 13-56] | < 0.5
38 | N#Cc1cccc(-c2ccc(C(=O)CN3C(=O)NC4(CCCCC4)C3=O)c(F)c2)c1 [Example 13-19] | < 0.1
39 | O=C(CN1C(=O)NC2(CCC(F)(F)CC2)C1=O)c1ccc(-c2cccnc2)nc1 [Example 5-1] | < 0.1
40 | O=C(CN1C(=O)NC2(CCC(F)(F)CC2)C1=O)c1ccc(Oc2ccccn2)cc1 [Example 5-17] | < 0.1
41 | O=C(CN1C(=O)NC2(CCC(F)(F)CC2)C1=O)c1ccc(-c2cccc3cnccc23)nc1 [Example 9-21] | < 0.1
42 | O=C(CN1C(=O)NC2(CCC(F)(F)CC2)C1=O)c1ccc(-n2cnc3ccccc32)cc1 [Example 5-7] | < 0.01
43 | N#Cc1nccnc1-c1ccc(C(=O)CN2C(=O)NC3(CCC(F)(F)CC3)C2=O)cc1 [Example 6-3] | < 0.01
44 | Cc1cncc(-n2c(C)cc(C(=O)CN3C(=O)NC4(CCCCC4)C3=O)c2C)n1 [Example 3-3] | < 0.1
45 | Cc1nccnc1-c1ccc(C(=O)CN2CC3(CCC(F)(F)CC3)OC2=O)cc1 [Example 7-19] | < 0.5
46 | CC(O)c1ccccc1-c1ccc(C(=O)CN2C(=O)NC3(CCC(F)(F)CC3)C2=O)cc1 (centres unmarked) [Example 6-40] | < 0.1
47 | O=C(CN1C(=O)NC2(CCC(F)(F)CC2)C1=O)c1ccc(-c2ncnc3ncccc23)cc1 [Example 6-59] | < 0.5

More lines, now with the values ahead:

Row | IC50 [µM] | SMILES
48 | < 0.1 | Cc1cc(C(=O)CN2C(=O)NC3(CCC(F)(F)CC3)C2=O)n(C)c1-c1cncnc1 [Example 16-16]
49 | < 0.01 | Cc1nc(C(=O)CN2C(=O)NC3(CCC(F)(F)CC3)C2=O)n(C)c1-c1cccc(F)c1 [Example 17-6]
50 | < 0.1 | O=C(CN1C(=O)NC2(CCC(F)(F)CC2)C1=O)c1ccc(N2C(=O)COc3ccccc32)nc1 [Example 19-13]
51 | < 0.1 | Cc1cc(C(=O)CN2C(=O)NC3(CCC(F)(F)CC3)C2=O)n(C)c1-c1cccc(C(N)=O)c1 [Example 16-6]
52 | < 0.1 | O=C(CN1C(=O)NC2(CCC(F)(F)CC2)C1=O)c1ccc(N2C(=O)Cc3ccccc32)cc1 [Example 19-26]
53 | < 0.01 | Cc1nc2ccc(C#N)nc2n1-c1ccc(C(=O)CN2C(=O)NC3(CCC(F)(F)CC3)C2=O)cc1 [Example 27-1, 3-(4-(2-(8,8-difluoro-2,4-dioxo-1,3-diazaspiro[4.5]decan-3-yl)acetyl)phenyl)-2-methyl-3H-imidazo[4,5-b]pyridine-5-carbonitrile]
54 | < 0.1 | O=C(CN1C(=O)NC2(CCC(F)(F)CC2)C1=O)c1ccc(Oc2cccc(Cl)c2)nc1 [Example 20-8]
55 | < 0.5 | Cc1ccnc(Oc2ccc(C(=O)CN3C(=O)NC4(CCC(F)(F)CC4)C3=O)cc2)c1 [Example 21-4]
56 | < 0.1 | Cc1cc(C(=O)CN2C(=O)NC3(CCC(F)(F)CC3)C2=O)n(C)c1-c1cccc(Cl)c1 [Example 16-12]
57 | < 0.01 | COc1nc2ccc(C)nc2n1-c1ccc(C(=O)CN2C(=O)NC3(CCC(F)(F)CC3)C2=O)cc1 [Example 26-3]
58 | < 0.5 | Cc1nc2nccnc2n1-c1ccc(C(=O)CN2C(=O)NC3(CCC(F)(F)CC3)C2=O)cc1 [Example 19-39]
59 | < 0.1 | Cn1c(-c2cccc3ccncc23)cnc1C(=O)CN1C(=O)NC2(CCC(F)(F)CC2)C1=O [Example 17-2]
60 | < 0.1 | Cc1ccc2ncn(-c3ccc(C(=O)CN4C(=O)NC5(CCC(F)(F)CC5)C4=O)cc3)c2n1 [Example 26-2]
61 | < 0.1 | Cc1cc(C(=O)CN2C(=O)NC3(CCC(F)(F)CC3)C2=O)n(C)c1-c1cncc(F)c1 [Example 16-21]
62 | < 0.1 | Cn1c(C(=O)CN2C(=O)NC3(CCC(F)(F)CC3)C2=O)ccc1-c1cccnc1 [Example 16-3]
63 | < 0.5 | O=C(CN1C(=O)NC2(CCC(F)(F)CC2)C1=O)c1ccc(Oc2cccnc2)cc1F [Example 21-16]
64 | < 0.5 | Cc1c(C(=O)CN2C(=O)NC3(CCC(F)(F)CC3)C2=O)cn(C)c1-c1ccccc1CO [Example 16-34]
65 | < 0.5 | CN(c1cccc(C(F)(F)F)c1)c1ccc(C(=O)CN2C(=O)NC3(CCC(F)(F)CC3)C2=O)cn1 [Example 19-15]
66 | < 0.1 | O=C(CN1C(=O)NC2(CCC(F)(F)CC2)C1=O)c1cnc(N2C(=O)COc3ccccc32)cn1 [Example 19-25]
67 | < 0.1 | Cn1c(C(=O)CN2C(=O)NC3(CCC(F)(F)CC3)C2=O)ccc1-c1cccc(C#N)c1 [Example 16-1]
68 | < 0.1 | CN(c1ccccn1)c1ccc(C(=O)CN2C(=O)NC3(CCCCC3)C2=O)cn1 [Example 19-2]
69 | < 0.1 | Cc1nc(C(=O)CN2C(=O)NC3(CCC(F)(F)CC3)C2=O)n(C)c1-c1cc(F)cc(F)c1 [Example 17-11]
70 | < 0.5 | COCc1nc2cccnc2n1-c1ccc(C(=O)CN2C(=O)NC3(CCC(F)(F)CC3)C2=O)cc1 [Example 24-4]
71 | < 0.1 | Cn1c(-c2cccc(F)c2)cnc1C(=O)CN1C(=O)NC2(CCC(F)(F)CC2)C1=O [Example 17-1]
